Data taken from patent US8410126B2, “Pyrimidine inhibitors of PKTK2” (Boehringer Ingelheim International GmbH, priority 2009, dated 2013).

The molecules below were run against T1, PTK2 (Homo sapiens, UniProt Q05397) (assay: PTK2 enzyme test Assay 2 (DELFIA, poly-Glu-Tyr substrate, PT66 antibody)). Conditions: Assay 2 (values marked *); 1 h pre-incubation, 50 μM ATP mix, final DMSO 0.5%.
T1 construct: purchased Invitrogen PV3832
Assay type: biochemical
Source text: This test uses active PTK2 enzyme (Invitrogen Code PV3832) and poly-Glu-Tyr (4:1, Sigma P-0275) as the kinase substrate. The kinase activity is detected by means of the phosphorylation of the substrate in a DELFIA™ assay. The phosphorylated substrate is detected with the europium-labelled phosphotyrosine antibody PT66 (Perkin Elmer, No.: AD0040).
In order to determine concentration-activity curves with PTK2-inhibitors the compounds are serially diluted first of all in 100% DMSO and then in kinase dilution buffer (20 mM TRIS/HCl pH 7.5, 0.1 mM EDTA, 0.1 mM EGTA, 0.286 mM sodium orthovanadate, 10% glycerol with the addition of freshly prepared BSA (fraction V, 1 mg/mL) and DTT (1 mM)) and 10 μL of each dilution are dispensed per well in a 96-well microtitre plate (clear U-shaped base plate, Greiner No. 650101) (the inhibitors are tested in duplicates) and mixed with 10 μL/well of PTK2 kinase (0.01 μg/well). PTK2 kinase is diluted accordingly beforehand with kinase dilution buffer. The diluted PTK2 inhibitor and the PTK2 kinase are pre-incubated for 1 h at RT and shaken at 500 revolutions per min. Then 10 μL/well poly-Glu-Tyr substrate (25 μg/well poly-Glu-Tyr, 0.05 μg/well biotinylated poly-Glu-Tyr dissolved in 250 mM TRIS/HCl pH 7.5, 9 mM DTT) are added. The reaction is started by the addition of 20 μL of ATP Mix (30 mM TRIS/HCl pH 7.5, 0.02% Brij, 0.2 mM sodium orthovanadate, 10 mM magnesium acetate, 0.1 mM EGTA, 1× phosphatase inhibitor cocktail 1 (Sigma, No.: P2850), 50 μM ATP (Sigma, No.: A3377; 15 mM stock solution))—the final concentration of DMSO is 0.5%. After 1 h kinase reaction (the plates are shaken at 500 rpm), the reaction is stopped by the addition of 12 μL/well of 100 mM EDTA, pH 8, and shaken for a further 5 min at RT (500 U/min). 55 μL of the reaction mixture are transferred into a streptavidin plate (Strepta Well High Bind (transparent, 96-well) made by Roche, No.: 11989685001) and incubated for 1 h at RT (shaking at 500 rpm). Then the microtitre plate is washed five times with 200 μL/well D-PBS (Invitrogen, No. 14190). 100 μL of a solution containing DELFIA Eu-N1 Anti-Phosphotyrosine PT66 antibody (Perkin Elmer, No.: AD0040, diluted 1:9000 in DELFIA test buffer (Perkin Elmer, No.: 1244-111)) is then added and it is incubated for 1 h at RT (shaking at 500 rpm). Then the plate is washed five times with 200 μL/well DELFIA washing buffer (Perkin Elmer, No.: 1244-114), 200 μL/well strengthening solution (Perkin Elmer, No.: 1244-105) is added and the whole is incubated for 10 min at RT (shaking at 300 rpm).
The time-delayed europium fluorescence is then measured in a microtitre plate reader (VICTOR^3, Perkin Elmer). The positive control consists of wells that contain solvent (0.5% DMSO in test buffer) and display uninhibited kinase activity. Wells that contain test buffer instead of enzyme act as a control for the background kinase activity.
The IC50 values are determined from concentration-activity analyses by iterative calculation using a sigmoid curve analysis algorithm (FIFTY, based on GraphPAD Prism Version 3.03) with a variable Hill coefficient.

T1 sequence (Q05397 whole entry): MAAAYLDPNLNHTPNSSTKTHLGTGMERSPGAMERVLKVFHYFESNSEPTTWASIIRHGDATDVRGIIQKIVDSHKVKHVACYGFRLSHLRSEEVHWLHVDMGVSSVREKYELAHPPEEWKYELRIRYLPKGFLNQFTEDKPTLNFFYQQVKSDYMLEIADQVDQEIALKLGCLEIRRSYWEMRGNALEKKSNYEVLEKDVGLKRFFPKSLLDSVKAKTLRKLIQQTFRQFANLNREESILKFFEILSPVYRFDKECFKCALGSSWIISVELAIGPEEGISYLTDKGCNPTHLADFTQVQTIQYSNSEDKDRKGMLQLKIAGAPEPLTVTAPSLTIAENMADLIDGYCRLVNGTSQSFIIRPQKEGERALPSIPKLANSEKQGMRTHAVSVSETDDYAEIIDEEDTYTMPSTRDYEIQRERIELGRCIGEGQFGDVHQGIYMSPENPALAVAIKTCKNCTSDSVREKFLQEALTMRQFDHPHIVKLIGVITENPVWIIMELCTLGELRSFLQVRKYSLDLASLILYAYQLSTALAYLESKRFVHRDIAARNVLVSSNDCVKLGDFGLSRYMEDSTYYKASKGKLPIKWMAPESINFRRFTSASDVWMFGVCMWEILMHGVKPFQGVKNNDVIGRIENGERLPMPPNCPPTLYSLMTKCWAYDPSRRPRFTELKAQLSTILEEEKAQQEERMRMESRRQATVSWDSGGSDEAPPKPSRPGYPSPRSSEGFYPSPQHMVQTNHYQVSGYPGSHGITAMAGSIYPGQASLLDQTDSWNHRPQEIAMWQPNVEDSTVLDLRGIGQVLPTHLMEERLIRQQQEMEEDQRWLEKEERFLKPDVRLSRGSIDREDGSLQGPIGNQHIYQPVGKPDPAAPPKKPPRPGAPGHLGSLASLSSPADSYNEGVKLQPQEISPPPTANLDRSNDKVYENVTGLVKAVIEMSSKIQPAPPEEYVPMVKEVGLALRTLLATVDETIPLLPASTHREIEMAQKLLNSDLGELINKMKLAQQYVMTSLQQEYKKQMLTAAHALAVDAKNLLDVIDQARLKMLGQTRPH

Compound	IC50 [nM]
CCc1cc(Nc2ncc(C(F)(F)F)c(N[C@@H]3Cc4ccccc4[C@H]3N(C)S(C)(=O)=O)n2)c(OC)cc1N1CCN(C)CC1 [Example I-67, N-((1R,2R)-2-{2-[5-ethyl-2-methoxy-4-(4-methyl-piperazin-1-yl)-phenylamino]-5-trifluoromethyl-pyrimidin-4-ylamino}-indan-1-yl)-N-methyl-methanesulphonamide]	0.68
COc1ccc(C(=O)NC2CCN(C)CC2)cc1Nc1ncc(C(F)(F)F)c(N[C@@H]2Cc3ccccc3[C@H]2N(C)S(C)(=O)=O)n1 [Example I-69]	0.37
CCc1cc(Nc2ncc(C(F)(F)F)c(N[C@@H]3Cc4ccccc4[C@H]3N(C)S(C)(=O)=O)n2)c(OC)cc1N1CCN(C(C)(C)C)CC1 [Example I-89]	0.68
COc1cc(C(=O)NN2CCN(C)CC2)ccc1Nc1ncc(C(F)(F)F)c(N[C@@H]2Cc3ccccc3[C@H]2N(C)S(C)(=O)=O)n1 [Example I-83]	0.47
CN1CCC(NC(=O)c2cccc(Nc3ncc(C(F)(F)F)c(N[C@@H]4Cc5ccccc5[C@H]4N(C)S(C)(=O)=O)n3)c2)CC1 [Example I-88]	0.26
COc1cc(NC(=O)N(C)C)ccc1Nc1ncc(C(F)(F)F)c(N[C@@H]2Cc3ccccc3[C@H]2N(C)S(C)(=O)=O)n1 [Example I-79]	0.23
COc1ccc(C(=O)N(C)C2CCN(C)CC2)cc1Nc1ncc(C(F)(F)F)c(N[C@@H]2Cc3ccccc3[C@H]2N(C)S(C)(=O)=O)n1 [Example I-81]	0.43
COc1cc(N2CCNCC2=O)ccc1Nc1ncc(C(F)(F)F)c(N[C@@H]2Cc3ccccc3[C@H]2N(C)S(C)(=O)=O)n1 [Example I-87]	0.48
COc1ccc(C(=O)N(C)CCN2CCCC2)cc1Nc1ncc(C(F)(F)F)c(N[C@@H]2Cc3ccccc3[C@H]2N(C)S(C)(=O)=O)n1 [Example I-85]	0.44
COc1cc(N2CCNCC2)c(C)cc1Nc1ncc(C(F)(F)F)c(N[C@@H]2Cc3ccccc3[C@H]2N(C)S(C)(=O)=O)n1 [Example I-74, N-{(1R,2R)-2-[2-(2-methoxy-5-methyl-4-piperazin-1-yl-phenylamino)-5-trifluoromethyl-pyrimidin-4-ylamino]-indan-1-yl}-N-methyl-methanesulphonamide]	0.66
COc1cc(NC(=O)C2CCN(C)CC2)ccc1Nc1ncc(C(F)(F)F)c(N[C@@H]2Cc3ccccc3[C@H]2N(C)S(C)(=O)=O)n1 [Example I-73, 1-methyl-piperidine-4-carboxylic acid (4-{4-[(1R,2R)-1-(methanesulphonyl-methyl-amino)-indan-2-ylamino]-5-trifluoromethyl-pyrimidin-2-ylamino}-3-methoxy-phenyl)-amide]	0.48

Further molecules by falling IC50, results first:

IC50 [nM]	Compound
0.76	COc1cc(N2CCNCC2)c(Cl)cc1Nc1ncc(C(F)(F)F)c(N[C@@H]2Cc3ccccc3[C@H]2N(C)S(C)(=O)=O)n1 [Example I-76, N-{(1R,2R)-2-[2-(5-chloro-2-methoxy-4-piperazin-1-yl-phenylamino)-5-trifluoromethyl-pyrimidin-4-ylamino]-indan-1-yl}-N-methyl-methanesulphonamide]
0.6	COc1ccc(C(=O)NC2CCN(C)CC2)cc1Nc1ncc(Cl)c(N[C@@H]2Cc3ccccc3[C@H]2N(C)S(C)(=O)=O)n1 [Example I-93]
0.43	COc1ccc(NC(=O)C2CCN(C)C2)cc1Nc1ncc(C(F)(F)F)c(N[C@@H]2Cc3ccccc3[C@H]2N(C)S(C)(=O)=O)n1 (stereo partly drawn) [Example I-61, 1-methyl-pyrrolidine-3-carboxylic acid (3-{4-[(1R,2R)-1-(methanesulphonyl-methyl-amino)-indan-2-ylamino]-5-trifluoromethyl-pyrimidin-2-ylamino}-4-methoxy-phenyl)-amide]
0.36	COc1cc(C)c(C(=O)NC2CCOCC2)cc1Nc1ncc(C(F)(F)F)c(N[C@@H]2Cc3ccccc3[C@H]2N(C)S(C)(=O)=O)n1 [Example I-82]
0.36	COc1cc(F)c(C(=O)NC2CCN(C)CC2)cc1Nc1ncc(C(F)(F)F)c(N[C@@H]2Cc3ccccc3[C@H]2N(C)S(C)(=O)=O)n1 [Example I-80, 2-fluoro-5-{4-[(1R,2R)-1-(methanesulphonyl-methyl-amino)-indan-2-ylamino]-5-trifluoromethyl-pyrimidin-2-ylamino}-4-methoxy-N-(1-methyl-piperidin-4-yl)-benzamide]
0.31	COc1cc(N2CCN(C)CC2=O)ccc1Nc1ncc(C(F)(F)F)c(N[C@@H]2Cc3ccccc3[C@H]2N(C)S(C)(=O)=O)n1 [Example I-86]
